From patent US12415989B2, “Cell culture platform for single cell sorting and enhanced reprogramming of iPSCs” (Fate Therapeutics, Inc., priority 2010, dated 2025)
“Also recorded” adds a separate entry of the source.

Legend:
[1] = system: human pluripotent stem cells; assay: Small molecule cocktails in single cell culture of human pluripotent stem cells on feeder free substratum; format: cell-based; settings: in combination with MEKi/TFGβi/GSKi
Procedure: FIGS. 1A-1E. The effects of various small molecule cocktails on single cell culture of human pluripotent stem cells on feeder free substratum. FIG. 1A. Different morphologies were evident when single cell dissociated human pluripotent stem cells were treated with various combinations of small molecules in a feeder free environment. Medium containing a combination of ROCKi/MEKi/TGFβi/GSKi delivered robust growth and viability of human pluripotent stem cells. FIG. 1B. While some small molecules supported maintenance of pluripotent stem cells, i.e., MEKi/TGFβi/GSKi, and others facilitated single cell dissociation of pluripotent stem cells, i.e., Rocki, the unique combination of these small molecules, i.e., ROCKi/MEKi/TGFβi/GSKi, supported single cell dissociation while maintaining undifferentiated status as indicated by highly proliferative colonies that were positive for pluripotent marker Tra181. Tra181, red; DAPI, blue. FIG. 1C. The combination of MEKi/TFGβi/GSKi/ROCKi supported viability and proliferation when hiPSCs were seeded at 1×10^5 cells on Matrigel and scored 4 days later for number of viable cells and percent viability as measured by trypan blue. FIG. 1D. […] FIG. 1E. […]

human fibroblasts = assay: Reprogramming of fibroblasts to iPSCs: kinetics and efficiency of colony formation; format: cell-based; settings: additive used in the culture system for 3 days
Procedure: To initiate the reprogramming process, ectopic expression of reprogramming factors (in variable combinations of human Oct4, Sox2, Klf4, c-Myc, Lin28, and Nanog) was achieved using lentiviral transduction or other methods such as protein only treatment. In most cases, the starting cells were plated at 10% confluency (i.e., 1×10^5 cells per well of a 6-well plate) on a gelatin (Mediatech) coated surface. For the method of viral infection, freshly collected lentivirus was added to the starting cells at a dilution of 1:2, supplemented with 4 μg/mL polybrene (Millipore), and spin-infected at 650 g at 32° C. for 1.5 hrs. The culture was transferred to 37° C. and 5% CO2 for an additional 7 hrs. After the completion of the incubation, the cells were washed three times with PBS and fed with fresh medium. With difficult to infect cells, such as IMR90 fibroblasts in feeder-free culture systems, this process was repeated one more time, 48 hrs post the initial infection. For non-genetic methods of inducing reprogramming such as the use of direct protein application to the cells, protein mixtures, or cocktails, consisting of reprogramming factors at 8 μg/mL were added to cell solution and maintained for 24 hrs prior to medium change. This step was repeated for an additional two to four times. […]

Compound	maintenance of cells in an undifferentiated state (SSEA4 and Tra181 surface expression) ([1]; compared with Y27632)	colony morphology ([1]; relative to Y27632)	post-sort seeding (human fibroblasts)
O=C(NCc1ccccc1)c1csc(Nc2ccncn2)n1 [Thiazovivin]	preferred over Y27632; also recorded: better supports the maintenance of cells in an undifferentiated state	more compact in morphology	
fibronectin			improved post-sort seeding
